Measurements: patent US9133140B2, “Cycloalkylamne derivatives” (Daiichi Sankyo Company, Limited, priority 2008, dated 2015)
Where a name gives a salt, the structure may show the parent alone. Read-outs that look alike come from different tables or passages of the source.

How the values were obtained:
human CaSR = target: T1, human CaSR (Homo sapiens, UniProt P41180); assay: Human CaSR activity measurement test (intracellular calcium in TT cells); format: cell-based; details: [EC50 of test compound]/[EC50 of Compound A], intracellular calcium fluorescence
T1 construct: TT cells are cell lines that express human CaSR; endogenous in cells; host or cells: TT cells (human medullary thyroid carcinoma cell line)
T1 sequence (P41180 20-1078): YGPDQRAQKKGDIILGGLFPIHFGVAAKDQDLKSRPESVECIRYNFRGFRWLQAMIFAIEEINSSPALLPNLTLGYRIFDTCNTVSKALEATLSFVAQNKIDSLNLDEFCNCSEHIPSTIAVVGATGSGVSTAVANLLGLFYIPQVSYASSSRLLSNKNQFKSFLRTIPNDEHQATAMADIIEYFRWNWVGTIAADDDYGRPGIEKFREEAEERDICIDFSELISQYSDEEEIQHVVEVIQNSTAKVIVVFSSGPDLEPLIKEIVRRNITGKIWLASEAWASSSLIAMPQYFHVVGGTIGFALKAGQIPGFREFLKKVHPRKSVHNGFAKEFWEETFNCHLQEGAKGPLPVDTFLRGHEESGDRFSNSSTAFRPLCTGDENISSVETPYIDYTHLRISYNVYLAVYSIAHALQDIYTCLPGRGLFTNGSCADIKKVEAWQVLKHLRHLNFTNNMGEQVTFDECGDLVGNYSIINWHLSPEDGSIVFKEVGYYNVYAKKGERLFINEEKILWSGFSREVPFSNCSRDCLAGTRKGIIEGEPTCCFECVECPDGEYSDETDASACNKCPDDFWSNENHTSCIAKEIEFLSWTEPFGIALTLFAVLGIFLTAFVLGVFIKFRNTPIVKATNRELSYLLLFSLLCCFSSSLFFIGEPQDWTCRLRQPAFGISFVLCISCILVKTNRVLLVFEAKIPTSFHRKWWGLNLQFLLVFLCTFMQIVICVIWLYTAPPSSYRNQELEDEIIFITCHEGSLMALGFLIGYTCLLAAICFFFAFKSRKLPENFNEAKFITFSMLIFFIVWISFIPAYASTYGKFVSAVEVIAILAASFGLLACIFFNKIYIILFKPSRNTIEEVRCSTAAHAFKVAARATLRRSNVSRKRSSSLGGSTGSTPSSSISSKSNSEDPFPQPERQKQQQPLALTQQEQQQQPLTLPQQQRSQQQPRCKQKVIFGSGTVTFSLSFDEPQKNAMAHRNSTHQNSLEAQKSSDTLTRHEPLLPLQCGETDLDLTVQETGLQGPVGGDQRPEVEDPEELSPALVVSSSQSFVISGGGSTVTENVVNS
Description: It is reported that human medullary thyroid carcinoma cell lines TT cells are cell lines that express human CaSR, and when CaSR is activated by extracellular calcium ions or the like, intracellular calcium ion concentration increases (Endocrinology 137: 3842-3848, 1996). Accordingly, an activating action of the test compounds with respect to human CaSR was evaluated by using the change in intracellular calcium concentration of TT cells as an indicator. TT cells were inoculated onto a black well/clear bottom 96 well plate (poly-D-lysine coat: manufactured by BD biosciences), and were cultured for approximately 24 hours in a F-12 Nutrient Mixture (Kaighn's modification) culture media containing 10% calf serum and 0.5% antibiotic antimycotic. […] Then, the plate was allowed to stand for 1 hour at 37° C. Subsequently, the above-mentioned plate was placed onto FlexStation (manufactured by Molecular Device) or FlexStation 3 (manufactured by Molecular Device), and fluorescence intensity before and after treatment with the test compound dissolved in a buffer for measurement (126 mM NaCl, 4 mM KCl, 1 mM MgCl2, 20 mM HEPES (pH 7.4), 5.6 mM glucose, 2 mM CaCl2) was measured. […] Nagano, Pharmacol. […] WO 1996/12697) as a comparative compound, by conducting a similar procedure. From the following equation, the human CaSR activity of each of the test compounds was calculated as the relative activity with respect to Compound A. Relative activity with respect to Compound A=[EC50 of test compound]/[EC50 of Compound A]

[1] = tested on: calcium ion concentration in the blood; assay: Measurement test for concentration of parathyroid hormone and calcium ion in rat blood; format: in vivo; details: read-out: reduction of calcium concentration in the blood
Description: Three male SD rats (manufactured by Japan SLC, Inc.) were orally administered with the test compound, and effects on the concentration of parathyroid hormone (PTH) in the blood and concentration of the calcium ion in the blood were studied.
The test compound was administered by dissolving or suspending it in a 0.5% methyl cellulose 400 (MC) solution or 0.5% MC solution containing 10% of ethanol. (In addition, Compound A used in Test Example 1 was administered as a MC suspension by dosage of 30 mg/kg, and was studied as a comparative example.) Blood was collected from the jugular vein under anesthesia with halothane or isoflurane, before administration of the test compound, and 2, 4, 6 or 8 and 24 hours after administration. Calcium ion concentration in the blood was measured using cartridge EG7+(manufactured by Fuso Chemical Co., Ltd.) and i-STAT 300F (manufactured by Fuso Chemical Co., Ltd.). In addition, plasma intact PTH concentration was measured using Rat intact PTH ELISA kit (manufactured by Immutopics).
The transition of calcium ion concentration in the blood over time from before administration to 24 hours after administration of each of the test compounds was plotted, and the decrease in calcium ion concentration in the blood from the value before administration was calculated as an area value.

[2] = male SD rats, oral, 10 mg/kg, 4 hours after administration

Row | Relative activity with respect to Compound A (human CaSR) | SMILES | also measured
1 | 0.72 | C[C@@H](NC1CC[C@@H](c2ccc(OCC(=O)O)cc2)C1)c1ccc(F)c2ccccc12 (mixture of isomers) [Example 16, {4-[(1R)-3-{[(1R)-1-(4-Fluoronaphthalen-1-yl)ethyl]amino}cyclopentyl]phenoxy}acetic acid] | inhibition in vivo at 10 mg/kg [1, 2]: ≥ 30%
2 | 0.30 | C[C@@H](N[C@H]1CC[C@@H](c2cccc(-c3nn[nH]n3)c2)C1)c1cccc2ccccc12 [Example 1, (1S,3R)-N-[(1R)-1-(Naphthalen-1-yl)ethyl]-3-[3-(2H-tetrazol-5-yl)phenyl]cyclopentanamine hydrochloride] | –
3 | 0.18 | C[C@@H](N[C@H]1CC[C@@H](c2ccc(-c3nn[nH]n3)cc2)C1)c1cccc2ccccc12 [Example 3, (1S,3R)-N-[(1R)-1-(Naphthalen-1-yl)ethyl]-3-[4-(2H-tetrazol-5-yl)phenyl]cyclopentanamine hydrochloride] | inhibition in vivo at 10 mg/kg [1, 2]: ≥ 30%
4 | 0.33 | C[C@@H](NC1CC[C@H](c2ccc(-c3nn[nH]n3)cc2)C1)c1cccc2ccccc12 (stereo partly drawn) [Example 4, (3S)-N-[(1R)-1-(Naphthalen-1-yl)ethyl]-3-[4-(2H-tetrazol-5-yl)phenyl]cyclopentanamine hydrochloride] | –
5 | 0.52 | C[C@@H](N[C@H]1CC[C@@H](c2ccc(C(=O)NCC(=O)O)cc2)C1)c1cccc2ccccc12 [Example 5, N-{4-[(1R,3S)-3-{[(1R)-1-(Naphthalen-1-yl)ethyl]amino}cyclopentyl]benzoylglycine hydrochloride] | –
6 | 0.26 | C[C@@H](N[C@H]1CC[C@@H](c2cccc(CC(=O)O)c2)C1)c1cccc2ccccc12 [Example 7, {3-[(1R,3S)-3-{[(1R)-1-(Naphthalen-1-yl)ethyl]amino}cyclopentyl]phenyl}acetic acid hydrochloride] | inhibition in vivo at 10 mg/kg [1, 2]: ≥ 30%
7 | 0.61 | C[C@@H](N[C@H]1CC[C@@H](c2ccc(CC(=O)O)cc2)C1)c1cccc2ccccc12 [Example 8, {4-[(1R,3S)-3-{[(1R)-1-(Naphthalen-1-yl)ethyl]amino}cyclopentyl]phenyl}acetic acid hydrochloride] | inhibition in vivo at 10 mg/kg [1, 2]: ≥ 30%
8 | 0.28 | C[C@@H](N[C@H]1CC[C@@H](c2ccc(OCC(=O)O)cc2)C1)c1cccc2ccccc12 [Example 10, {4-[(1R,3S)-3-{[(1R)-1-(Naphthalen-1-yl)ethyl]amino}cyclopentyl]phenoxy}acetic acid hydrochloride] | inhibition in vivo at 10 mg/kg [1, 2]: ≥ 30%
9 | 0.36 | C[C@@H](N[C@H]1CC[C@@H](c2cccc(OCC(=O)O)c2)C1)c1cccc2ccccc12 [Example 12, {3-[(1R,3S)-3-{[(1R)-1-(Naphthalen-1-yl)ethyl]amino}cyclopentyl]phenoxy}acetic acid hydrochloride] | –
10 | 0.42 | Cc1ccc([C@@H](C)NC2CC[C@@H](c3ccc(OCC(=O)O)cc3)C2)c2ccccc12 (stereo partly drawn) [Example 22, {4-[(1R)-3-{[(1R)-1-(4-Methylnaphthalen-1-yl)ethyl]amino}cyclopentyl]phenoxy}acetic acid] | –
11 | 0.26 | Cc1cc([C@@H]2CC[C@H](N[C@H](C)c3cccc4ccccc34)C2)ccc1OCC(=O)O [Example 32, {2-Methyl-4-[(1R,3S)-3-{[(1R)-1-(naphthalen-1-yl)ethyl]amino}cyclopentyl]phenoxy}acetic acid hydrochloride] | –
12 | 0.13 | C[C@@H](N[C@H]1CC[C@@H](c2ccc(OCc3nn[nH]n3)cc2)C1)c1cccc2ccccc12 [Example 38, (1S,3R)-N-[(1R)-1-(Naphthalen-1-yl)ethyl]-3-[4-(2H-tetrazol-5-ylmethoxy)phenyl]cyclopentanamine hydrochloride] | –

Second part, the compound before the results:

Row | SMILES | Relative activity with respect to Compound A (human CaSR) | also measured
13 | C[C@@H](NCCCc1cccc(C(F)(F)F)c1)c1cccc2ccccc12 [Compound A, ((R)-1-naphthalen-1-yl-ethyl)-[3-(3-trifluoromethyl-phenyl)-propyl]-amine monohydrochloride, reference compound] | – | inhibition in vivo at 30 mg/kg ([1]; male SD rats, oral, 30 mg/kg, 4 hours after administration): 15 to 30%
14 | C[C@@H](N[C@H]1CC[C@@H](c2ccc(CCC(=O)O)cc2)C1)c1cccc2ccccc12 [Example 9, 3-{4-(1R,3S)-3-{[(1R)-1-(Naphthalen-1-yl)ethyl]amino}cyclopentyl]phenyl}propanoic acid hydrochloride] | 0.38 | –
15 | C[C@@H](N[C@H]1CC[C@@H](c2ccc(OCC(=O)O)cc2)C1)c1ccc(F)c2cc(F)ccc12 [Example 23, {4-[(1R,3S)-3-{[(1R)-1-(4,6-Difluoronaphthalen-1-yl)ethyl]amino}cyclopentyl]phenoxy}acetic acid] | – | inhibition in vivo at 0.3 mg/kg ([1]; male SD rats, oral, 0.3 mg/kg, 4 hours after administration): ≥ 20%
16 | C[C@@H](N[C@H]1CC[C@@H](c2ccc(-c3nn[nH]n3)cc2)C1)c1ccc(F)c2ccccc12 [Example 26, (1S,3R)-N-[(1R)-1-(4-Fluoronaphthalen-1-yl)ethyl]-3-[4-(2H-tetrazol-5-yl)phenyl]cyclopentanamine hydrochloride] | 0.27 | –
17 | C[C@@H](N[C@H]1CC[C@H](c2ccc(CCC(=O)O)cc2)C1)c1cccc2ccccc12 [Example 29, 3-{4-[(1S,3S)-3-[(1R)-1-(4-Naphthalen-1-yl)ethyl]amino}cyclopentyl]phenyl}propanoic acid hydrochloride] | 0.30 | –
18 | C[C@@H](N[C@H]1CC[C@@H](c2ccc(NCC(=O)O)cc2)C1)c1ccc(F)c2ccccc12 [Example 35, N-{4-[(1R,3S)-3-{[(1R)-1-(4-Fluoronaphthalen-1-yl)ethyl]amino}cyclopentyl]phenyl}glycine 0.3 hydrochloride] | – | inhibition in vivo at 10 mg/kg ([1]; po, 4 h): ≥ 30%
19 | C[C@@H](N[C@H]1CC[C@@H](c2ccc(SCC(=O)O)cc2)C1)c1ccc(F)c2ccccc12 [Example 37, ({4-[(1R,3S)-3-{[(1R)-1-(4-Fluoronaphthalen-1-yl)ethyl]amino}cyclopentyl]phenyl}thio)acetic acid hydrochloride] | 0.10 | –
20 | C[C@@H](N[C@H]1CC[C@@H](c2ccc(OCc3nn[nH]n3)cc2)C1)c1ccc(F)c2ccccc12 [Example 39, (1S,3R)-N-[(1R)-1-(4-Fluoronaphthalen-1-yl)ethyl]-3-[4-(2H-tetrazol-5-ylmethoxy)phenyl]cyclopentanamine hydrochloride] | 0.07 | –
